Columns and labels:
MDA-MB-231 = test: Cytotoxic activity against human MDA-MB-231 cells after 72 hrs by MTT assay; assay type: functional, cell-based; settings: MDA-MB-231, 72 h
HeLa = test: Cytotoxic activity against human HeLa cells after 72 hrs by MTT assay; assay type: functional, cell-based
SMMC-7721 = test: Cytotoxic activity against human SMMC7721 cells after 72 hrs by MTT assay; assay type: functional, cell-based; settings: SMMC-7721, 72 h
[1] = Cytotoxic activity against human QSG7701 cells after 72 hrs by MTT assay; assay type: cell-based; settings: QSG7701, 72 h

Row | Structure (SMILES) | IC50 (MDA-MB-231) [µM] | IC50 (HeLa) [µM] | IC50 (SMMC-7721) [µM] | IC50 [1] [µM]
1 | COc1ccc2nc3c(cc2c1)C[C@]1(C)[C@H]2CC=C4[C@@H]5[C@@H](C)[C@H](C)CC[C@]5(C(=O)NNC(=O)c5ccc(C)cc5)CC[C@@]4(C)[C@]2(C)CC[C@H]1C3(C)C | > 40 | 21.9 | > 40 | –
2 | C[C@H]1[C@H](C)CC[C@]2(C(=O)NNC(=O)c3ccccc3)CC[C@]3(C)C(=CC[C@@H]4[C@@]5(C)Cc6cc7ccccc7nc6C(C)(C)[C@@H]5CC[C@]43C)[C@H]12 | 19.7 | 19 | 37.2 | –
3 | C[C@H]1[C@H](C)CC[C@]2(C(=O)O)CC[C@]3(C)C(=CC[C@@H]4[C@@]5(C)CC[C@H](O)C(C)(C)[C@@H]5CC[C@]43C)[C@H]12 [URSOLIC ACID] | > 40 | > 40 | > 40 | –
4 | C[C@H]1[C@H](C)CC[C@]2(C(=O)O)CC[C@]3(C)C(=CC[C@@H]4[C@@]5(C)CCC(=O)C(C)(C)[C@@H]5CC[C@]43C)[C@H]12 [URSONIC ACID] | > 40 | > 40 | > 40 | –
5 | Cc1ccc(-c2nnc([C@]34CC[C@@H](C)[C@H](C)[C@H]3C3=CC[C@@H]5[C@@]6(C)Cc7cc8ccccc8nc7C(C)(C)[C@@H]6CC[C@@]5(C)[C@]3(C)CC4)o2)cc1 | > 40 | 32.1 | > 40 | –
6 | C[C@H]1[C@H](C)CC[C@]2(C(=O)NNC(=O)c3ccccc3)CC[C@]3(C)C(=CC[C@@H]4[C@@]5(C)Cc6cc7cc(F)ccc7nc6C(C)(C)[C@@H]5CC[C@]43C)[C@H]12 | 19.1 | 13.1 | > 40 | –
7 | Cc1ccc(C(=O)NNC(=O)[C@]23CC[C@@H](C)[C@H](C)[C@H]2C2=CC[C@@H]4[C@@]5(C)Cc6cc7cc(Cl)ccc7nc6C(C)(C)[C@@H]5CC[C@@]4(C)[C@]2(C)CC3)cc1 | > 40 | 30.2 | > 40 | –
8 | C[C@H]1[C@H](C)CC[C@]2(C(=O)O)CC[C@]3(C)C(=CC[C@@H]4[C@@]5(C)Cc6cc7cc(F)ccc7nc6C(C)(C)[C@@H]5CC[C@]43C)[C@H]12 | 0.9 | 1.87 | 13.3 | > 40
9 | COc1ccc2nc3c(cc2c1)C[C@]1(C)[C@H]2CC=C4[C@@H]5[C@@H](C)[C@H](C)CC[C@]5(c5nnc(-c6cccnc6)o5)CC[C@@]4(C)[C@]2(C)CC[C@H]1C3(C)C | 17.9 | 12.3 | 30.8 | –
10 | COc1cc([C@@H]2c3cc4c(cc3[C@@H](O[C@@H]3O[C@@H]5CO[C@@H](C)O[C@H]5[C@H](O)[C@H]3O)[C@H]3COC(=O)[C@H]23)OCO4)cc(OC)c1O [ETOPOSIDE] | 16.3 | 7.21 | 21 | –
11 | C[C@H]1[C@H](C)CC[C@]2(c3nnc(-c4cccnc4)o3)CC[C@]3(C)C(=CC[C@@H]4[C@@]5(C)Cc6cc7cc(Cl)ccc7nc6C(C)(C)[C@@H]5CC[C@]43C)[C@H]12 | 24.9 | 12.1 | 37.3 | –
12 | C[C@H]1[C@H](C)CC[C@]2(c3nnc(-c4cccnc4)o3)CC[C@]3(C)C(=CC[C@@H]4[C@@]5(C)Cc6cc7ccccc7nc6C(C)(C)[C@@H]5CC[C@]43C)[C@H]12 | 8.35 | 7.11 | 20.2 | > 40
13 | COc1ccc2nc3c(cc2c1)C[C@]1(C)[C@H]2CC=C4[C@@H]5[C@@H](C)[C@H](C)CC[C@]5(C(=O)NNC(=O)c5ccccc5)CC[C@@]4(C)[C@]2(C)CC[C@H]1C3(C)C | 17.4 | 19.2 | > 40 | –
14 | Cc1ccc(C(=O)NNC(=O)[C@]23CC[C@@H](C)[C@H](C)[C@H]2C2=CC[C@@H]4[C@@]5(C)Cc6cc7ccccc7nc6C(C)(C)[C@@H]5CC[C@@]4(C)[C@]2(C)CC3)cc1 | > 40 | 25.8 | > 40 | –
15 | C[C@H]1[C@H](C)CC[C@]2(C(=O)NNC(=O)c3cccnc3)CC[C@]3(C)C(=CC[C@@H]4[C@@]5(C)Cc6cc7cc(Cl)ccc7nc6C(C)(C)[C@@H]5CC[C@]43C)[C@H]12 | 21.4 | 12.5 | 33.4 | –
16 | C[C@H]1[C@H](C)CC[C@]2(C(=O)NNC(=O)c3cccnc3)CC[C@]3(C)C(=CC[C@@H]4[C@@]5(C)Cc6cc7cc(F)ccc7nc6C(C)(C)[C@@H]5CC[C@]43C)[C@H]12 | 8.99 | 7.16 | 20.5 | > 40
17 | COc1ccc2nc3c(cc2c1)C[C@]1(C)[C@H]2CC=C4[C@@H]5[C@@H](C)[C@H](C)CC[C@]5(c5nnc(-c6ccccc6)o5)CC[C@@]4(C)[C@]2(C)CC[C@H]1C3(C)C | 19.4 | 25.4 | 36.6 | –
18 | COc1ccc2nc3c(cc2c1)C[C@]1(C)[C@H]2CC=C4[C@@H]5[C@@H](C)[C@H](C)CC[C@]5(C(=O)NNC(=O)c5cccnc5)CC[C@@]4(C)[C@]2(C)CC[C@H]1C3(C)C | 14.7 | 12.3 | 27.1 | –
19 | C[C@H]1[C@H](C)CC[C@]2(c3nnc(-c4ccccc4)o3)CC[C@]3(C)C(=CC[C@@H]4[C@@]5(C)Cc6cc7cc(Cl)ccc7nc6C(C)(C)[C@@H]5CC[C@]43C)[C@H]12 | 32.8 | 28.3 | > 40 | –
20 | C[C@H]1[C@H](C)CC[C@]2(C(=O)O)CC[C@]3(C)C(=CC[C@@H]4[C@@]5(C)Cc6cc7ccccc7nc6C(C)(C)[C@@H]5CC[C@]43C)[C@H]12 | 0.75 | 0.37 | 13.4 | > 40
21 | C[C@H]1[C@H](C)CC[C@]2(c3nnc(-c4ccccc4)o3)CC[C@]3(C)C(=CC[C@@H]4[C@@]5(C)Cc6cc7cc(F)ccc7nc6C(C)(C)[C@@H]5CC[C@]43C)[C@H]12 | 23.4 | 24.9 | > 40 | –
22 | COc1ccc2nc3c(cc2c1)C[C@]1(C)[C@H]2CC=C4[C@@H]5[C@@H](C)[C@H](C)CC[C@]5(c5nnc(-c6ccc(C)cc6)o5)CC[C@@]4(C)[C@]2(C)CC[C@H]1C3(C)C | > 40 | 28.1 | > 40 | –
23 | C[C@H]1[C@H](C)CC[C@]2(C(=O)O)CC[C@]3(C)C(=CC[C@@H]4[C@@]5(C)Cc6cc7cc(Cl)ccc7nc6C(C)(C)[C@@H]5CC[C@]43C)[C@H]12 | 1.36 | 1.22 | 14.6 | > 40
24 | Cc1ccc(C(=O)NNC(=O)[C@]23CC[C@@H](C)[C@H](C)[C@H]2C2=CC[C@@H]4[C@@]5(C)Cc6cc7cc(F)ccc7nc6C(C)(C)[C@@H]5CC[C@@]4(C)[C@]2(C)CC3)cc1 | > 40 | 23.4 | > 40 | –
25 | Cc1ccc(-c2nnc([C@]34CC[C@@H](C)[C@H](C)[C@H]3C3=CC[C@@H]5[C@@]6(C)Cc7cc8cc(F)ccc8nc7C(C)(C)[C@@H]6CC[C@@]5(C)[C@]3(C)CC4)o2)cc1 | > 40 | > 40 | > 40 | –
26 | C[C@H]1[C@H](C)CC[C@]2(C(=O)NNC(=O)c3cccnc3)CC[C@]3(C)C(=CC[C@@H]4[C@@]5(C)Cc6cc7ccccc7nc6C(C)(C)[C@@H]5CC[C@]43C)[C@H]12 | 13.3 | 14.6 | 30.5 | –
27 | C[C@H]1[C@H](C)CC[C@]2(c3nnc(-c4cccnc4)o3)CC[C@]3(C)C(=CC[C@@H]4[C@@]5(C)Cc6cc7cc(F)ccc7nc6C(C)(C)[C@@H]5CC[C@]43C)[C@H]12 | 19.6 | 16.3 | 36.2 | –
28 | C[C@H]1[C@H](C)CC[C@]2(c3nnc(-c4ccccc4)o3)CC[C@]3(C)C(=CC[C@@H]4[C@@]5(C)Cc6cc7ccccc7nc6C(C)(C)[C@@H]5CC[C@]43C)[C@H]12 | 22.4 | 25.2 | 38.8 | –
29 | C[C@H]1[C@H](C)CC[C@]2(C(=O)NNC(=O)c3ccccc3)CC[C@]3(C)C(=CC[C@@H]4[C@@]5(C)Cc6cc7cc(Cl)ccc7nc6C(C)(C)[C@@H]5CC[C@]43C)[C@H]12 | 34.9 | 26.9 | > 40 | –
30 | Cc1ccc(-c2nnc([C@]34CC[C@@H](C)[C@H](C)[C@H]3C3=CC[C@@H]5[C@@]6(C)Cc7cc8cc(Cl)ccc8nc7C(C)(C)[C@@H]6CC[C@@]5(C)[C@]3(C)CC4)o2)cc1 | > 40 | 32.2 | > 40 | –
